Like-named read-outs stand apart in the source and are kept apart here.
Key:
[1] = tested on: nuclear factor erythroid 2-related factor 2 (Nrf2); details: hepatocytes; cited from earlier work
HepG2 cells [2] = test: Cytotoxicity / lipocytotoxicity assay (CCK-8); type: cell-based; details: 0.25 mM oleic acid, 24 h, HepG2
Description: (§1) HepG2 cells were purchased from the American Type Culture Collection (ATCC) (Manassas, VA, USA). High-glucose DMEM containing 10% heat-inactivated FBS and 1% penicillin–streptomycin was maintained under a humidified atmosphere at 37 °C with 5% CO2, as indicated in the Supplementary Materials. HepG2 cells (1.5 × 10^4/well) in DMEM supplemented with 10% FBS were seeded into a 96-well plate. A cytotoxicity assay was performed according to the manufacturer’s protocol using CCK-8 (Dojindo Molecular Technologies), as indicated in the Supplementary Materials (Materials and Methods). […]
(§2) 2 1.2. Cytotoxicity assay […] HepG2 cells (1.5 × 10^4/well) in DMEM supplemented with 10% FBS were under reduced pressure, and H2O (25 ml) was added. Then the solution was seeded into a 96-well plate. The cytotoxicity assay was done using CCK-8 extracted with AcOEt after adjusted to 9–10 with aq. NaOH solution. The organic (Dojindo Molecular Technologies) according to the manufacturer's protocol. […]
(§3) Compounds 1 and 3. To a stirred soln. Compound 10 (218 mg, 1.00 mmol), 5- Technologies, Rockville, USA) according to the manufacturer ’sinstructions. Cell Acetoxymethylfurfural (1, 168 mg, 1.00 mmol) and Nano CuO (7.955 mg, 0.1 suspension (100 μl/well) was inoculated in a 96-well plate (Iwaki, Japan), and mmol) were added 6 ml of DMF. The mixture was stirred at 90℃ for 16 h. The pH once monolayers were observed, treatments were added (n = 3 per each of the aqueous solution was adjusted to 9–10 with aq NaOH solution after adding treatment). Cells were then pre-incubated with the treatments for 24 h before H O. After extracting the solution with AcOEt, the organic layer was washed with assay to determine cell viability.Absorbance was measured at 450 nm using a 2 plate reader (PerkinElmer-ARVO-MX-ID 10533234, Japan). […]
(§4) [5-(hydroxymethyl)-2-furanyl]-1H-pyrido[3,4-b]indole-3-carboxylic acid (2, CAS culture medium was removed from each dish, and cells were washed Registry Number 896466-77-6); flazine methyl ester acetate (3, CAS Registry and rinsed with 1× PBS. Cells were then fixed for 20 min in 10% formalin and Number 104537-95-3); flazin (4, CAS Registry Number 100041-05-2); washed twice using PBS. Then, Oil Red O dye was added to the dishes and incubated for 20 min. Finally, the dye was removed from each dish and cells 5

HepG2 cells [3] = test: Lipid droplet accumulation inhibition (LDAI) assay, Oil Red O, oleic acid-loaded cells; type: cell-based, human; details: for Induction of LDs: HepG2
Description: LDAI assay: LDAI activity was determined using an Oil Red O assay with 24-well plates (n = 4 per treatment). Staining of LDs in cultured hepatocytes was performed according to the manufacturer’s instructions, based on the Oil Red O staining assay. Briefly, HepG2 cells (1.5 × 10^4/well) were supplemented with 10% FBS, cultured, seeded in 35-mm dishes, and treated with the tested samples after 24 h. Oil Red O, a fat-soluble dye, is widely used for staining neutral lipids in LDs, as described in the Supplementary Materials. […]
2 1.2. Cytotoxicity assay dropwise under ice-cooling. […]
Lipid droplet accumulation inhibition assay and Real-Ti me LDAI acid tryptophan (9) and compound 12 were subjected to acid conversion at 90 °C accumulation in acetic acid to obtain compound 2 (1H and 13C, see in Supporting Information). Lipid droplet accumulation inhibition (LDAI) activity was determined using an Synthesis of Compound 4. To a stirred soln . compound 3 in MeOH was added oilred assay in a 24-well plate according to the manufacturer ’sinstructions (n = 4 with NaOH (2 mol/L). Compound 4 was obtained after stirringthe mixture at 65℃ per each treatment). Real-time oleic induced-LD inhibition was performed by for 5 h. (1H and 13C, see Figures S10 and S11). We also prepared similar using a Nikkon microscope. Morphological analysis of HepG2 cells after compounds without any substituent at the C-1 position in the C-ring using a one- treatment with control(-OA) and (+OA) or compound at different concentrations pot Pictet–Spengler reaction (6-8). was determined by staining with AO/EB.
Synthetic b-carboline alkaloids (1-8): 1.4. Oil Red O Staining.
CAS Registry Number of all the series of synthetic b-carboline alkaloids (1-8) HepG2 cells were cultured and treated in 35 mm dishes, as described above. were subjected to biological evaluation: 1H-Pyrido[3,4-b]indole-3-carboxylic acid, Oil Red O dye was used for LD staining. Oil Red O was dissolved in isopropanol 1-[5-[(acetyloxy)methyl]-2-furanyl]-2,3,4,9-tetrahydro-, methyl ester, (1S-trans)- as 3 mg/mL and diluted with water so that isopropanol became 60%. Oil Red O (9CI) (1,CAS Registry Number 11 5 1 0 7-75-0;11 5 1 0 7-76-1);2,3,4,9-Tetrahydro-1-solutionwasfilteredbya0.4 μm pore syringe filter.For cellular staining, the […]

[4] = Cytotoxicity / lipocytotoxicity assay (CCK-8); type: cell-based; details: human; for IC50 at 24 h: HepG2, values given in the text, read-out: IC50 (cytotoxicity, cell viability)
Description: as §1, §2, §3, §4

HepG2 cells [5] = details: 100 μM; cited from earlier work
human HepG2 = tested on: human HepG2; parameters: method as in PMID 30103390; details: human HepG2, 180 μM; cited from earlier work
[6] = HepG2 cells, HepG2, DMEM loaded with fatty acid (+OA), read-out: Lipocytotoxicity (LC50), concentration at which 50% of cells died
[7] = HepG2 cells, HepG2, DMEM without fatty acid (−OA), read-out: Cytotoxicity (CC50), concentration at which 50% of cells died
[8] = Homo sapiens, HepG2, 24 h, HepG2 + 0.25 mM oleic acid, vs untreated control (+OA)

## COc1c(O)cc(CO)cc1O [DHMBA, 3,5-dihydroxy-4-methoxybenzyl alcohol, reference compound]
[1]
  Nrf2-dependent antioxidant action: Nrf2-dependent antioxidant action

## CCCCCCCC/C=C\CCCCCCCC(=O)O [oleic acid, reference compound]
HepG2 cells [2]
  Cell viability after oleic acid treatment (in words): no cytotoxicity
HepG2 cells [3]; 0.25 mM oleic acid, 24 h
  Induction of LDs: 2.6 fold
HepG2 cells [3]; 0.5 mM oleic acid, 24 h
  Induction of LDs: 2.8 fold

## O=C(O)c1cc2c(cn1)[nH]c1ccccc12 [Compound 8, β-Carboline-3-carboxylic acid]
[4]; [6]
  CC50 at 24 h: 530 µM
[4]; [7]
  CC50 at 24 h: 549 µM
HepG2 cells [3]; [8]
  inhibition at 400 µM: 81.8%

## COC(=O)C1Cc2c([nH]c3ccccc23)CN1 (stereo not drawn) [Compound 5, methyl 1,2,3,4-tetrahydro-β-carboline-3-carboxylate]
[4]; [6]
  CC50 at 24 h: 488 µM
[4]; [7]
  CC50 at 24 h: 397 µM
HepG2 cells [3]; [8]
  inhibition at 400 µM: 42%

## COC(=O)[C@@H]1Cc2c([nH]c3ccccc23)C(c2ccc(COC(C)=O)o2)N1 (stereo partly shown) [Compound 1, Methyl 1,2,3,4-Tetrahydro-1-(5-[(acetyloxy)methyl]-2-furanyl)-9H-pyrido [3,4-b]indole-3-carboxylic acid]
[4]; [6]
  CC50 at 24 h: 442 µM
[4]; [7]
  CC50 at 24 h: 488 µM
[4]; HepG2 cells
  IC50 at 24 h: 488 µM
HepG2 cells [3]; [8]
  inhibition at 400 µM: 63.2%

## O=C(O)C1Cc2c([nH]c3ccccc23)CN1 (stereo not drawn) [Compound 6, 1,2,3,4-Tetrahydro-β-carboline-3-carboxylic acid]
[4]; [6]
  CC50 at 24 h: 520 µM
[4]; [7]
  CC50 at 24 h: 505 µM

## COC(=O)c1cc2c(cn1)[nH]c1ccccc12 [Compound 7, methyl β-carboline-3-carboxylate]
[4]; HepG2, DMEM loaded with fatty acid (+OA), read-out: Lipocytotoxicity (LC50), concentration at which 50% of cells died
  CC50 at 24 h: 498 µM
[4]; HepG2, DMEM without fatty acid (−OA), read-out: Cytotoxicity (CC50), concentration at which 50% of cells died
  CC50 at 24 h: 390 µM
HepG2 cells [3]; Homo sapiens, 24 h, HepG2 + 0.25 mM oleic acid, vs untreated control (+OA)
  inhibition at 400 µM: 25.4%

## O=c1c(-c2ccc(O)cc2)coc2c([C@@H]3O[C@H](CO)[C@@H](O)[C@H](O)[C@H]3O)c(O)ccc12 [Puerarin]
HepG2 cells [5]
  Hepatic steatosis: ameliorates hepatic steatosis

## Oc1cc(O)c2cc(O)c(-c3cc(O)c(O)c(O)c3)[o+]c2c1 [Delphinidin]
Human HepG2
  Hepatic triglyceride accumulation: ameliorated hepatic triglyceride accumulation

## COC(=O)c1cc2c([nH]c3ccccc32)c(-c2ccc(COC(C)=O)o2)n1 [Compound 3, flazin methyl ester acetate]
[4]; [6]
  CC50 at 24 h: 131 µM
[4]; [7]
  CC50 at 24 h: 66.8 µM
[4]; HepG2 cells
  IC50 at 24 h: 66.9 µM
HepG2 cells [3]; Homo sapiens, HepG2, 24 h, 50 μM, HepG2 + 0.25 mM oleic acid, vs untreated control (+OA)
  inhibition at 50 µM: 26%

— PMC9147645, “Food-Derived β-Carboline Alkaloids Ameliorate Lipid Droplet Accumulation in Human Hepatocytes” (Pharmaceuticals, 2022)
